Experimental data taken from PMC6199744, “Development of Chemical Proteomics for the Folateome and Analysis of the Kinetoplastid Folateome” (ACS Infectious Diseases, 2018).
Where two headings read alike, the source gives them in different places.

How the values were obtained:
Type in all cases: binding
[1] = target: T1, HeLa cell extract proteins (Homo sapiens, UniProt Q01469)
T1 construct: endogenous in cells; host or cells: HeLa cell extract

[2] = target: T2, HeLa cell extract proteins (Homo sapiens, UniProt O60232)
T2 construct: endogenous in cells; host or cells: HeLa cell extract
T2 sequence (O60232 1-199): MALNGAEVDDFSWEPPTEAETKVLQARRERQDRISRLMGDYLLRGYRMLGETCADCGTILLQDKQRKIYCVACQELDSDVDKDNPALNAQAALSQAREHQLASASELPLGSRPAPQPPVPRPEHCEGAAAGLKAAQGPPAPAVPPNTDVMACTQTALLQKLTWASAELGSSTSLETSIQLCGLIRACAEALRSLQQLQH

[3] = target: T3, HeLa cell extract proteins (Homo sapiens, UniProt Q9NYP7)
T3 construct: endogenous in cells; host or cells: HeLa cell extract
T3 sequence (Q9NYP7 1-299): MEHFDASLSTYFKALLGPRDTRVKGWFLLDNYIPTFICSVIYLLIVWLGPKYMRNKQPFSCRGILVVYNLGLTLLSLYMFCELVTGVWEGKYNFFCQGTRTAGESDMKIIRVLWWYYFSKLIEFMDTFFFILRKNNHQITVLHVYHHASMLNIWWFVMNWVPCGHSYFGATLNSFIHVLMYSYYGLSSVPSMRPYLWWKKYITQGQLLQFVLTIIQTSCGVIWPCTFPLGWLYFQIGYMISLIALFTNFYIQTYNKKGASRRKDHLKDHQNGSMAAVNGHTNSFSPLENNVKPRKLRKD

[4] = target: T4, HeLa cell extract proteins (Homo sapiens, UniProt P35268)
T4 construct: endogenous in cells; host or cells: HeLa cell extract

[5] = target: T5, HeLa cell extract proteins (Homo sapiens, UniProt P30837)
T5 construct: endogenous in cells; host or cells: HeLa cell extract
T5 sequence (P30837 18-517): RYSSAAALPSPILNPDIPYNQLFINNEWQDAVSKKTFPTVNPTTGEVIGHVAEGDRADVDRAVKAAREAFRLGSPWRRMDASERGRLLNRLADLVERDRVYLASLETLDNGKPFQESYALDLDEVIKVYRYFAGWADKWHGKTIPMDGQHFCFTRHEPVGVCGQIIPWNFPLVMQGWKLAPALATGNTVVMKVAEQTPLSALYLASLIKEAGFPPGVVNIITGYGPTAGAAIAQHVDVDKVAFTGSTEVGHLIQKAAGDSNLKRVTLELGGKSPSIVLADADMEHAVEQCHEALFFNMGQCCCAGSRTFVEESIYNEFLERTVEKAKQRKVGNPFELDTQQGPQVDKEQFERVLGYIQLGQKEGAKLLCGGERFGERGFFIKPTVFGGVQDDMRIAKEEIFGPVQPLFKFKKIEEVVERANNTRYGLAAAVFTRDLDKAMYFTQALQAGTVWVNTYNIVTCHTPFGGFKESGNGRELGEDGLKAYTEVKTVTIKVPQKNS

[6] = target: T6, HeLa cell extract proteins (Homo sapiens, UniProt P55209)
T6 construct: endogenous in cells; host or cells: HeLa cell extract
T6 sequence (P55209 1-391): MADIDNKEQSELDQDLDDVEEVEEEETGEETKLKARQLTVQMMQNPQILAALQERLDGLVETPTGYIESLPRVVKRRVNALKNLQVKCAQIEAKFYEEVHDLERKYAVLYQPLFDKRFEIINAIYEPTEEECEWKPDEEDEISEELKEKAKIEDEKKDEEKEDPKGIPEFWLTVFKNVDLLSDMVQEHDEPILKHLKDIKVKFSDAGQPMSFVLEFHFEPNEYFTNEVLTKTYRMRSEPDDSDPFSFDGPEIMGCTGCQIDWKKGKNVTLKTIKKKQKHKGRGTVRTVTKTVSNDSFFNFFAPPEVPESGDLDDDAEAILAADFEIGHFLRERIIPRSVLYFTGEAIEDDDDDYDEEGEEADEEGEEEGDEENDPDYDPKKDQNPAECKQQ

[7] = target: T7, HeLa cell extract proteins (Homo sapiens, UniProt Q7Z6Z7)
T7 construct: endogenous in cells; host or cells: HeLa cell extract

[8] = target: T8, HeLa cell extract proteins (Homo sapiens, UniProt P62081)
T8 construct: endogenous in cells; host or cells: HeLa cell extract

[9] = target: T9, HeLa cell extract proteins (Homo sapiens, UniProt P63241)
T9 construct: endogenous in cells; host or cells: HeLa cell extract
T9 sequence (P63241 whole entry): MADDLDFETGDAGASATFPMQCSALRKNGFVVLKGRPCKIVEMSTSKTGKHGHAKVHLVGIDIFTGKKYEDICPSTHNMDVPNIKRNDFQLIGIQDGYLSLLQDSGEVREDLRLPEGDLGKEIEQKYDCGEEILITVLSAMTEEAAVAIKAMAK

[10] = target: T10, HeLa cell extract proteins (Homo sapiens, UniProt O75489); settings: HeLa; protein NDUFS3
T10 construct: endogenous in cells; host or cells: HeLa cell extract
T10 sequence (O75489 37-264): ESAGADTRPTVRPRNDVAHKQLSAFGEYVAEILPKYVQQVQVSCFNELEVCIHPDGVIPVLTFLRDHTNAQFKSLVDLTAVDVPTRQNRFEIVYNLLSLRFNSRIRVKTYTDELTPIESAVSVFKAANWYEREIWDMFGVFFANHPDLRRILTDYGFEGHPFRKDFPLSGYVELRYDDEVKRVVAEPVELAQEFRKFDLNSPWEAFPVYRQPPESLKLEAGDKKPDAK

[11] = target: T11, HeLa cell extract proteins (Homo sapiens, UniProt P82933); settings: protein MRPS9; HeLa
T11 construct: endogenous in cells; host or cells: HeLa cell extract

[12] = target: T12, HeLa cell extract proteins (Homo sapiens, UniProt O43776); settings: protein NARS; HeLa
T12 construct: endogenous in cells; host or cells: HeLa cell extract
T12 sequence (O43776 1-548): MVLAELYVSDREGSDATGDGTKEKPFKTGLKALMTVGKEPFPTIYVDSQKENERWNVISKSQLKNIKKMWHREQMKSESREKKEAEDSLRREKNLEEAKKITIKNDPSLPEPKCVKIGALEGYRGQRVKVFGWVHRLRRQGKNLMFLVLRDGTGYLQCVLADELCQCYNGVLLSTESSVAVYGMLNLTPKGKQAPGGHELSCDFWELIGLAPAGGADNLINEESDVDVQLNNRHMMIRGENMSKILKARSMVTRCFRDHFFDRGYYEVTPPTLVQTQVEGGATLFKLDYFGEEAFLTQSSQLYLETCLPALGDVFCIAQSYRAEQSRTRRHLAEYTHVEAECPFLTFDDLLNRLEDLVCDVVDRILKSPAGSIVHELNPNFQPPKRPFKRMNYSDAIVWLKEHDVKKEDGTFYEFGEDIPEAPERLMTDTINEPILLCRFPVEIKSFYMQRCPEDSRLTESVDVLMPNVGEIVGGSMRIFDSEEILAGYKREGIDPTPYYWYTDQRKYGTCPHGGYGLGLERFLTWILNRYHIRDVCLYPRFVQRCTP

[13] = target: T13, HeLa cell extract proteins (Homo sapiens, UniProt P25786); settings: protein PSMA1; HeLa
T13 construct: endogenous in cells; host or cells: HeLa cell extract
T13 sequence (P25786 whole entry): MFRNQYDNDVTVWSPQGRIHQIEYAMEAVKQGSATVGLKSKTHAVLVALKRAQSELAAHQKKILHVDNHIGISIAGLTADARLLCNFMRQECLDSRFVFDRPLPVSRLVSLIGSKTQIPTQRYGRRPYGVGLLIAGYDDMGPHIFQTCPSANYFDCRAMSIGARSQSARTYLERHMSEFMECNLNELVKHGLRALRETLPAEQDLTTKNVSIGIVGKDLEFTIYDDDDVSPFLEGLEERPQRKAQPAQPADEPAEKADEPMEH

[14] = target: T14, HeLa cell extract proteins (Homo sapiens, UniProt Q8TEQ6); settings: protein GEMIN5; HeLa
T14 construct: endogenous in cells; host or cells: HeLa cell extract
T14 sequence (Q8TEQ6 whole entry): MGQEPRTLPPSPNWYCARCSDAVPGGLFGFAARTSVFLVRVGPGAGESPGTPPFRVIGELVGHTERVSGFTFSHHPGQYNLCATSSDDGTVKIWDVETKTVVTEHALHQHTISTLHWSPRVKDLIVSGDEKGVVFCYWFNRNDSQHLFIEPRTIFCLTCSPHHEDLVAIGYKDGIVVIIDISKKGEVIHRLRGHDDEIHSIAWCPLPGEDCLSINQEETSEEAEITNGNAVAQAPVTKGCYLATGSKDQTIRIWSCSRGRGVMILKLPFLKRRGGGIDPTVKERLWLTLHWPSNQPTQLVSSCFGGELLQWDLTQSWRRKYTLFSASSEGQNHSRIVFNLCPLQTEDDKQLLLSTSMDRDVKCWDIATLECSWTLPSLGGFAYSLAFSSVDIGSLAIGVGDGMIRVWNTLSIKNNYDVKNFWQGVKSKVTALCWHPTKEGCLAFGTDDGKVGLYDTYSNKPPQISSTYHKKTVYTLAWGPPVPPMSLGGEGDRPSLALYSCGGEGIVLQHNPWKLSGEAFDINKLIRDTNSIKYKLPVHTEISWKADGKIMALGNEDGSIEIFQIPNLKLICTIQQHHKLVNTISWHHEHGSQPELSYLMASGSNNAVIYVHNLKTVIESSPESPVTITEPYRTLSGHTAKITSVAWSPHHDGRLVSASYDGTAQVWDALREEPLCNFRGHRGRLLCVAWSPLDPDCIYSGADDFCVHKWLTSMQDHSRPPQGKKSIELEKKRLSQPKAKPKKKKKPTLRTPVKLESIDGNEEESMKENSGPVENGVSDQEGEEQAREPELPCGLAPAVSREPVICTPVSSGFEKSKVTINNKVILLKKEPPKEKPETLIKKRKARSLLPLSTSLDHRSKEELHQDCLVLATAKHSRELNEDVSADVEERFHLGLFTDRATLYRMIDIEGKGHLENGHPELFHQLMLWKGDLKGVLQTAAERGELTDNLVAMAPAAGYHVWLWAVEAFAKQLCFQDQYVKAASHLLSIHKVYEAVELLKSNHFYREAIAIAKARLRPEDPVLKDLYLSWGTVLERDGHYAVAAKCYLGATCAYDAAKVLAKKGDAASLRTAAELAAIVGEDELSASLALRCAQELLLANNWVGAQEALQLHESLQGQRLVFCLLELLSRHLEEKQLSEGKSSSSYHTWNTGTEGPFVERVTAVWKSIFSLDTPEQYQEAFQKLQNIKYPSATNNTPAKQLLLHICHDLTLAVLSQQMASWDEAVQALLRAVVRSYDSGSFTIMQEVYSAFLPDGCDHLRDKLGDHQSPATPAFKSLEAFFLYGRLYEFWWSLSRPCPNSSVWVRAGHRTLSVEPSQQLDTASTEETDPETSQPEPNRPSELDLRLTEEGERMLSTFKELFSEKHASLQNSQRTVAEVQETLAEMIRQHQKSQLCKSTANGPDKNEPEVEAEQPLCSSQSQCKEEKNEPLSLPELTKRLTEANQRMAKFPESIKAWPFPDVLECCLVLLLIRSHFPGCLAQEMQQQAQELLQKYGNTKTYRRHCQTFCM

T1 sequence (Q01469 whole entry): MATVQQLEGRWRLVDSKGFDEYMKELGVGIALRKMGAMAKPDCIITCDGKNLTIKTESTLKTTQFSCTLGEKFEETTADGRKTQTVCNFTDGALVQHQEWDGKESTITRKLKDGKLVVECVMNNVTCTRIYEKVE

Nc1nc2c(c(=O)[nH]1)N(C=O)C(CNc1ccc(C(=O)N[C@@H](CCC(=O)O)C(=O)O)cc1)CN2 (stereo partly drawn) [LEU, leucovorin]
fold changes relative to vehicle control ([1]; protein FABP5, HeLa): 1
fold changes relative to vehicle control ([2]; protein SSSCA1, HeLa): 0.95
fold changes relative to vehicle control ([3]; HeLa, protein ELOVL5): 0.95
fold changes relative to vehicle control ([4]; HeLa, protein RPL22): 0.86
fold changes relative to vehicle control ([5]; HeLa, captured protein ALDH1B1): 1.03
fold changes relative to vehicle control ([6]; HeLa, captured protein NAP1L1): 0.97
fold changes relative to vehicle control ([7]; HeLa, protein HUWE1): 0.98
fold changes relative to vehicle control ([8]; HeLa, protein RPS7): 0.94
fold changes relative to vehicle control ([9]; HeLa, captured protein EIF5A): 1.12

NCCCNc1ccc(C(=O)NC(CCC(=O)O)C(=O)O)cc1 (stereo not drawn) [compound 7]
fold changes relative to vehicle control ([1]; protein FABP5, HeLa): 1.1
fold changes relative to vehicle control ([2]; protein SSSCA1, HeLa): 1.07
fold changes relative to vehicle control ([3]; HeLa, protein ELOVL5): 1.02
fold changes relative to vehicle control ([4]; HeLa, protein RPL22): 1.19
fold changes relative to vehicle control ([5]; HeLa, captured protein ALDH1B1): 0.95
fold changes relative to vehicle control ([6]; HeLa, captured protein NAP1L1): 1.06
fold changes relative to vehicle control ([7]; HeLa, protein HUWE1): 0.96
fold changes relative to vehicle control ([8]; HeLa, protein RPS7): 0.88
fold changes relative to vehicle control ([9]; HeLa, captured protein EIF5A): 1.02

CCCCCCOc1cccc(Cc2cnc(N)nc2N)c1 [compound 2]
fold changes relative to vehicle control [10]: 1.19
fold changes relative to vehicle control [11]: 1.3
fold changes relative to vehicle control [12]: 2.06
fold changes relative to vehicle control [13]: 1.36
fold changes relative to vehicle control [14]: 1.12

CCCCCCOc1ccc(Cc2cnc(N)nc2N)cc1 [compound 1]
fold changes relative to vehicle control [10]: 1.05
fold changes relative to vehicle control [11]: 1.24
fold changes relative to vehicle control [12]: 1.11
fold changes relative to vehicle control [13]: 1.2
fold changes relative to vehicle control [14]: 0.99

Nc1nc2cccc(-c3ccccc3)c2n1Cc1ccc(Cl)c(Cl)c1 [compound 3]
fold changes relative to vehicle control [10]: 0.86
fold changes relative to vehicle control [11]: 0.92
fold changes relative to vehicle control [12]: 1.28
fold changes relative to vehicle control [13]: 0.97
fold changes relative to vehicle control [14]: 1.61

NCCOCCOCC(=O)Nc1nc2ncc(CNc3ccc(C(=O)NC(CCC(=O)O)C(=O)O)cc3)nc2c(=O)[nH]1 (stereo not drawn) [compound 6]
fold changes relative to vehicle control ([1]; protein FABP5, HeLa): 1.3
fold changes relative to vehicle control ([2]; protein SSSCA1, HeLa): 1.13
fold changes relative to vehicle control ([3]; HeLa, protein ELOVL5): 0.98
fold changes relative to vehicle control ([4]; HeLa, protein RPL22): 1.2
fold changes relative to vehicle control ([5]; HeLa, captured protein ALDH1B1): 1.06
fold changes relative to vehicle control ([6]; HeLa, captured protein NAP1L1): 1.19
fold changes relative to vehicle control ([7]; HeLa, protein HUWE1): 1.23
fold changes relative to vehicle control ([8]; HeLa, protein RPS7): 1.06
fold changes relative to vehicle control ([9]; HeLa, captured protein EIF5A): 1.61

Nc1nc2[nH]cc(CCc3ccc(C(=O)N[C@@H](CCC(=O)O)C(=O)O)cc3)c2c(=O)[nH]1 [PTX, pemetrexed]
fold changes relative to vehicle control [1]: 1.45
fold changes relative to vehicle control [2]: 0.94
fold changes relative to vehicle control [3]: 0.9
fold changes relative to vehicle control [4]: 0.98
fold changes relative to vehicle control [5]: 0.93
fold changes relative to vehicle control [6]: 1.04
fold changes relative to vehicle control [7]: 1.02
fold changes relative to vehicle control [8]: 0.92
fold changes relative to vehicle control [9]: 1.32
